Source: patent US9718811B2, “(S)-enantiomer of mepazine” (Helmholtz Zentrum München—Deutsches Forschungszentrum für …, priority 2013, dated 2017)
Entries after “also recorded” stand apart in the source; their conditions may differ.

Key:
GST-MALT1325-760 = target: T1, GST-MALT1325-760 (Homo sapiens, UniProt Q9UDY8); assay: MALT1 paracaspase activity (fluorogenic cleavage) assay
T1 sequence (Q9UDY8 325-760 limits assumed): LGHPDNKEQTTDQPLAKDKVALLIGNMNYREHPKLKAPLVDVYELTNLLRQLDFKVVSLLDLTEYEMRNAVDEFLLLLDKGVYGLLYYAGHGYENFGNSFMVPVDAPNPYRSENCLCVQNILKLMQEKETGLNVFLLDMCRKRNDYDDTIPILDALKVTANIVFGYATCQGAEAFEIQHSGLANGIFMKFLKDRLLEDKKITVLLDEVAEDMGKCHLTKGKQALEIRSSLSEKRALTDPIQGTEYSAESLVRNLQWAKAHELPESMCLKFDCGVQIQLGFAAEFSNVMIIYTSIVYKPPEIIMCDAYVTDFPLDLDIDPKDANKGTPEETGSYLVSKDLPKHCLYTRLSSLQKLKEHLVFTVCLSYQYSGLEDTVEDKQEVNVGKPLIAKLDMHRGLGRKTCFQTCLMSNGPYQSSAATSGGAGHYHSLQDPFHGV

human MALT1 (L339-R719) = target: T2, human MALT1 (L339-R719) (Homo sapiens, UniProt Q9UDY8); assay: Tryptophan fluorescence quenching assay; conditions: monomeric MALT1 (L339-R719), quenching of W580, 20° C.; FIG. 2a/b; read-out: binding affinity KD
T2 construct: human MALT1 (L339-R719) was used; only implied by the Ni-NTA purification; made in house; host or cells: Escherichia coli Rosetta (DE3)
T2 sequence (Q9UDY8 339-719): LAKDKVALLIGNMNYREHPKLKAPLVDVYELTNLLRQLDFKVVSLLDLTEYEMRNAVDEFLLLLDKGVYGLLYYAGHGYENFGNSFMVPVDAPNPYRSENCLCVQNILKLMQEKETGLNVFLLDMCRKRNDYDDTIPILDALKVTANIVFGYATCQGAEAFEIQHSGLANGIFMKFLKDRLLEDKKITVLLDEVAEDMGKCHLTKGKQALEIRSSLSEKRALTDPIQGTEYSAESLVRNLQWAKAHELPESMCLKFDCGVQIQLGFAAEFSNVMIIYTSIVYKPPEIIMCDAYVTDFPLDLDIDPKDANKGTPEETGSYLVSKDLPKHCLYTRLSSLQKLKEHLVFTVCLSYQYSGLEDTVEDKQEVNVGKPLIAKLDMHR
Protocol: For crystallization and tryptophan fluorescence quenching human MALT1 (L339-R719) was used.
Fluorescence quenching of tryptophan W580 was measured with the fluorescence spectrometer (FluoroMax-P, HORIBA Jobin Yvon) at an extinction wavelength of 285 nm and an emission wavelength of 329 nm. The measurement was performed by 2 μl titration steps of 400 μM, 800 μM, 4 mM, 8 mM thioridazine and mepazine stock solutions in H2O against 0.5 μM monomeric MALT1 (L339-R719) in 1.6 ml assay buffer (5 mM Hepes pH 7.0, 300 mM NaCl) at 20° C. The quenching assay of thioridazine and mepazine enantiomers was performed equally to racemates measurements.
For this assay advantage was taken from the fact that W580 is the only tryptophan residue in the MALT1Casp-Ig3 construct and is in close proximity to the bound tricyclic moiety of the phenothiazine derivatives.

[1] = test system: GCB DLBCL cell-line Su-DHL-6; assay: DLBCL xenograft model, Su-DHL-6 control tumor; assay type: in vivo, mice (NSG); conditions: 6 or 12 mg/kg IP once daily, started 13 days after transplantation
Protocol: (§1) Tumors were engrafted in 6- to 8-week-old female NOD.Cg-Prkdc^scid I12rg^tm1Wj1/SzJ (NSG) mice by subcutaneous injection of 4×10^6 tumor cells (OCI-Ly10 or Su-DHL-6) resuspended in matrigel (BD). Both tumors were engrafted simultaneously on opposite flanks of individual mice, with four mice for each treatment group. […] A daily application of 150 or 300 μg of compound per animal (˜25 g) was used, corresponding to approximately 6 or 12 mg/kg, respectively. The tumor size was measured every other day after visual appearance using a caliper and calculated as square millimeters (length×width). Mice were sacrificed when the tumors were above 250 mm^2 and statistical data was analyzed with a two-way ANOVA test.
(§2) In the DLBCL xenograft model NSG mice were subcutaneously injected with the MALT1-dependent ABC DLBCL cell line OCI-Ly10 and the MALT1-independent GCB DLBCL cell-line Su-DHL6 in opposing flanks of individual mice.

[2] = Racemization check by chiral HPLC; assay type: physicochemical
Protocol: Enantiomeric purity of the thioridazine and mepazine enantiomers was determined by comparison to commercially available racemates using a ChiralPak IA 250×4.6 mm (L×I.D.) […] tris(3,5-dimethylphenylcarbamate) column. For thioridazine an isocratic gradient of 1% ethanol in hexane containing 0.1% diethylamine modifier was used. In the case of mepazine an isocratic gradient of 1% isopropanol in hexane containing 0.1% diethylamine modifier was used. Both were run at 1 ml/min.
(S)-Mepazine provided a single peak by Chiral HPLC under conditions in which the individual enantiomers are resolved.

[3] = test system: ABC DLBCL cell-line OCI-Ly10; assay: DLBCL xenograft model, OCI-Ly10 tumor; assay type: in vivo, mice (NSG); conditions: 6 or 12 mg/kg IP once daily, started 13 days after transplantation
Protocol: as §1, §2

[4] = Chronic progressive EAE (experimental allergic encephalomyelitis) model; assay type: in vivo, C57Bl/6 mice
Protocol: For the EAE model first 1 mg/ml MOG35-55 peptides (MOG: myelin/oligodendrocyte glycoprotein; accession no. AAF74786) were emulsified 1:1 in Complete Freund's Adjuvant (CFA, incl. 5 mg/ml heat-killed M. tuberculum H37RA). On day one female C57Bl/6 mice (8-10 weeks old) were subcutaneously treated with 0.1 ml of MOG/CFA (0.1 mg MOG/0.25 mg CFA per mouse) in both flanks. In addition 0.2 ml pertussis toxin ([…]) was intraperitoneally injected immediately after (200 ng per mouse), followed by a second injection the day after. […] The clinical score of the mice was determined according to the following parameters: Score 0=no obvious signs of motor dysfunction in mice compared to non-immunized control; 0.5—distal tail limpness; 1=limp or floppy tail; 2=limp tail and weakness in hind legs; 3=limp tail and complete paralysis of hind legs OR limp tail with paralysis of one front and one hind leg; 4=limp tail, complete hind leg and partial front leg paralysis; 5=complete hind and complete front leg paralysis, no movement around cage OR mouse is spontaneously rolling in cage OR mouse found dead due to paralysis.
At the end of the study mice were euthanized and blood serum and also the brain and the spinal cord was collected for a histopathology analysis. Here foci of inflammatory cell infiltrate (at least 50 μm) into the spinal cord were counted and scored using the following criteria: 0=normal; 0.5 very minimal; 1=minimal, 2-4 generally less than 100 μm width/length; 2=mild, 5-7 small discreet foci; 3=moderate, 8-10 small plus larger coalescing areas; 4=marked, 11-13 small plus larger coalescing areas; 5=severe, often multiple coalescing >13. Percent area of white matter that bad demyelination, edema, dilated axons was estimated and used to determine a score using the following criteria: 0=normal; 1=minimal, 1-5% of total are affected; 2=mild, 5-25% of total area affected; 3=moderate, 26-50% of total area affected; 4=marked, 51-75% of total area affected; 5=>75% of total area affected.

[5] = CIA (collagen induced arthritis) model; assay type: in vivo, DBA1/J mice; conditions: paw histopathology
[6] = IC50 (MALT1 cleavage assay), wt GST-MALT1325-760, Ac-LRSR-AMC substrate, FIG. 2c/d
[7] = IC50 on recombinant MALT1 (fluorogenic MALT1 cleavage assay), FIG. 3a/b
[8] = IP 8 mg/kg twice daily, histopathology, 8 mg/kg

Row | SMILES | IC50 (GST-MALT1325-760; [6]) [µM] | IC50 (GST-MALT1325-760; [7]) [µM] | Kd (human MALT1 (L339-R719)) [µM] | growth of the GCB DLBCL (Su-DHL-6) control tumor [1] | racemization on standing or in solution [2] | growth of the ABC DLBCL (OCI-Ly10) tumor [3] | EAE induced weight loss ([4]; IP 8 mg/kg twice daily) | EAE severity (clinical score) ([4]; IP 8 mg/kg twice daily (16 mg/kg), started at clinical score of around 1) | demyelination in the spinal cord [4, 8] | inflammatory foci formation in the spinal cord [4, 8] | CIA-related inflammation [5] | bone resorption [5] | cartilage damage [5] | pannus formation [5]
1 | CSc1ccc2c(c1)N(CCC1CCCCN1C)c1ccccc1S2 (single isomer, unassigned) [(R)-thioridazine] | 5 ± 1.5 | 4.99 ± 1.52 | 23 ± 0.6 |  |  |  |  |  |  |  |  |  |  | 
2 | CSc1ccc2c(c1)N(CCC1CCCCN1C)c1ccccc1S2 (single isomer, unassigned) [(S)-thioridazine] | 4.8 ± 0.9 | 4.83 ± 0.88 | 21.3 ± 0.5 |  |  |  |  |  |  |  |  |  |  | 
3 | CN1CCC[C@H](CN2c3ccccc3Sc3ccccc32)C1 [(S)-mepazine, 10-{[(3S)-1-methylpiperidin-3-yl]methyl}-10H-phenothiazine] |  |  |  | not affected | No racemization | selective growth reduction | reduced EAE induced weight loss | reduction of EAE severity | reduced; also recorded: inhibition | reduced; also recorded: inhibition | strong reduction; also recorded: decrease | strong reduction; also recorded: decrease | strong reduction; also recorded: decrease | strong reduction; also recorded: decrease
